Measured values as given in US9133207B2, “Tetrandrine derivatives with substituted 5-carbon, preparation method and use thereof” (Hangzhou Bensheng Pharmaceutical Co., Ltd., priority 2011, dated 2015).
Converted amounts (≈) assume the structure as drawn.

Key:
[1] = test system: NB4 (acute promyelocytic leukemia, AML); experiment: Leukemia cell growth inhibition, MTT, 72 h (Example 5); type: cell-based, human; settings: for IC50 / IC90: Homo sapiens, 72 h, MTT
How it was run: (§1)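 An MTT read-out of viable cell concentration follows 72 h incubation (37° C, 5% CO2) of 6000 cells/well in 10% FBS-supplemented 1640 medium with the 5-substituted derivatives at varying concentrations.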

[2] = test system: H9 (acute lymphoblastic leukemia, ALL); experiment: as above; type: cell-based, human; settings: for IC50 / IC90: Homo sapiens, 72 h, MTT
How it was run: as §1

[3] = test system: Kasumi-1 (acute myeloid leukemia M2 type, AML-M2); experiment: as above; type: cell-based, human; settings: Homo sapiens, Kasumi 1
How it was run: as §1

[4] = test system: K562/adr (drug-resistant, chronic myeloid leukemia, CML); experiment: as above; type: cell-based, human; settings: Homo sapiens, K562/Adr; 72 h, MTT
How it was run: as §1

[5] = test system: Jurkat (acute lymphoblastic leukemia, ALL); experiment: as above; type: cell-based, human; settings: Homo sapiens, Jurkat; 72 h, MTT
How it was run: as §1

[6] = test system: MGC 803 (human gastric cancer cell); experiment: Solid tumor cell growth inhibition, MTT, 72 h (Example 7); type: cell-based; settings: Homo sapiens
How it was run: (§2)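 4000 cells/well; DMEM high glucose + 10% FBS; 37 °C, 5% CO2; 24 h pre-culture; tetrandrine derivatives, varied conc., 72 h; MTT readout; viability % vs untreated control = 100%.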

[7] = test system: RKO (human colon adenocarcinoma cell); experiment: as above; type: cell-based; settings: for IC50 / IC90: Homo sapiens, 72 h, MTT, RKO
How it was run: as §2

A549 (human lung cancer) = experiment: as above; type: cell-based; settings: Homo sapiens; 72 h, MTT, A549
How it was run: as §2

[8] = test system: Hela (human cervical cancer cell); experiment: as above; type: cell-based; settings: for IC50 / IC90: Homo sapiens, 72 h, MTT, Hela
How it was run: as §2

[9] = test system: SK-OV-3 (ovarian cancer cell); experiment: as above; type: cell-based; settings: Homo sapiens
How it was run: as §2

[10] = test system: Huh7 (human liver cancer cell); experiment: as above; type: cell-based; settings: Homo sapiens; 72 h, MTT, Huh-7
How it was run: as §2

[11] = test system: CNE (nasopharyngeal carcinoma cell); experiment: as above; type: cell-based; settings: Homo sapiens
How it was run: as §2

[12] = test system: Becap37 (human breast cancer cell); experiment: as above; type: cell-based; settings: for IC50 / IC90: Homo sapiens, 72 h, MTT, Becap-37
How it was run: as §2

[13] = test system: U87 MG (malignant glioma cell); experiment: as above; type: cell-based; settings: Homo sapiens, U-87 MG
How it was run: as §2

[14] = test system: CaES-17 (esophageal cancer cell); experiment: as above; type: cell-based, human; settings: for IC50 / IC90: Homo sapiens, CaEs17, 72 h, MTT, CAES-17
How it was run: as §2

[15] = test system: PANC-1 (pancreatic cancer); experiment: as above; type: cell-based, human; settings: Homo sapiens; 72 h, MTT, PANC-1
How it was run: as §2

[16] = test system: Hep-2 (laryngeal carcinoma); experiment: as above; type: cell-based, human; settings: for IC50 / IC90: Homo sapiens, 72 h, MTT, Hep 2
How it was run: as §2

MG63 (osteosarcoma) = experiment: as above; type: cell-based, human; settings: for IC50 / IC90: Homo sapiens, 72 h, MTT, MG-63
How it was run: as §2

PC-3 (prostate cancer) = experiment: as above; type: cell-based, human; settings: Homo sapiens; 72 h, MTT, PC-3
How it was run: as §2

[17] = test system: RPMI8226 (multiple myeloma); experiment: Multiple myeloma cell growth inhibition, MTT, 72 h (Example 6); type: cell-based, human; settings: Homo sapiens, RPMI-8226; 72 h, MTT, RPMI8226
How it was run: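 Viability was read by MTT after 72 h of compound exposure at 37 °C, 5% CO2. Each well held 6000 RPMI8226 cells in 1640 medium containing 10% fetal bovine serum, with derivatives added at various concentrations.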

## CCN1CCN(Cc2c3c4c(c(OC)c2OC)Oc2cc5c(cc2OC)CCN(C)[C@H]5Cc2ccc(cc2)Oc2cc(ccc2OC)C[C@@H]4N(C)CC3)CC1 [BS-TE-342]
[1]
  IC50: 0.6 µg/mL (≈ 0.801 µM)
  IC90: 1.6 µg/mL (≈ 2.14 µM)
[2]
  IC50: 1.11 µg/mL (≈ 1.48 µM)
  IC90: 2.32 µg/mL (≈ 3.1 µM)
[3]
  IC50: 0.75 µg/mL (≈ 1 µM)
  IC90: 3.1 µg/mL (≈ 4.14 µM)
[4]
  IC50: 0.55 µg/mL (≈ 0.734 µM)
  IC90: 2.15 µg/mL (≈ 2.87 µM)
[5]
  IC50: 0.8 µg/mL (≈ 1.07 µM)
  IC90: 4.05 µg/mL (≈ 5.41 µM)
[6]
  IC50: 1.38 µg/mL (≈ 1.84 µM)
  IC90: 6.55 µg/mL (≈ 8.75 µM)
[7]
  IC50: 0.69 µg/mL (≈ 0.921 µM)
  IC90: 1.75 µg/mL (≈ 2.34 µM)
A549 (human lung cancer)
  IC50: 3.2 µg/mL (≈ 4.27 µM)
  IC90: 16 µg/mL (≈ 21.4 µM)
[8]
  IC50: 1.69 µg/mL (≈ 2.26 µM)
  IC90: 4.1 µg/mL (≈ 5.47 µM)
[9]
  IC50: 2 µg/mL (≈ 2.67 µM)
  IC90: > 16 µg/mL
[10]
  IC50: 1.31 µg/mL (≈ 1.75 µM)
  IC90: 2.46 µg/mL (≈ 3.28 µM)
[11]
  IC50: 1.6 µg/mL (≈ 2.14 µM)
  IC90: 3.7 µg/mL (≈ 4.94 µM)
[12]
  IC50: 1.1 µg/mL (≈ 1.47 µM)
  IC90: 4.5 µg/mL (≈ 6.01 µM)
[13]
  IC50: 0.3 µg/mL (≈ 0.401 µM)
  IC90: 1.16 µg/mL (≈ 1.55 µM)
[14]
  IC50: 2.21 µg/mL (≈ 2.95 µM)
  IC90: 12.4 µg/mL (≈ 16.5 µM)
[15]
  IC50: 1.92 µg/mL (≈ 2.56 µM)
  IC90: 6.84 µg/mL (≈ 9.13 µM)
[16]
  IC50: 1.86 µg/mL (≈ 2.48 µM)
  IC90: 7.19 µg/mL (≈ 9.6 µM)
MG63 (osteosarcoma)
  IC50: 0.9 µg/mL (≈ 1.2 µM)
  IC90: 1.9 µg/mL (≈ 2.54 µM)
PC-3 (prostate cancer)
  IC50: 1.79 µg/mL (≈ 2.39 µM)
  IC90: 2.4 µg/mL (≈ 3.2 µM)
[17]
  IC50: 0.006 µg/mL (≈ 0.00801 µM)
  IC90: 0.45 µg/mL (≈ 0.601 µM)

## COc1ccc2cc1Oc1ccc(cc1)C[C@H]1c3cc(c(OC)cc3CCN1C)Oc1c(OC)c(OC)c(CN3CCCC(CO)C3)c3c1[C@H](C2)N(C)CC3 (some centres unmarked) [BS-TE-351]
[1]
  IC50: 0.7 µg/mL (≈ 0.933 µM)
  IC90: 1.9 µg/mL (≈ 2.53 µM)
[2]
  IC50: 0.72 µg/mL (≈ 0.96 µM)
  IC90: 1.58 µg/mL (≈ 2.11 µM)
[3]
  IC50: 0.76 µg/mL (≈ 1.01 µM)
  IC90: 3.59 µg/mL (≈ 4.79 µM)
[4]
  IC50: 0.82 µg/mL (≈ 1.09 µM)
  IC90: 3.11 µg/mL (≈ 4.15 µM)
[5]
  IC50: 1 µg/mL (≈ 1.33 µM)
  IC90: 5.02 µg/mL (≈ 6.69 µM)
[6]
  IC50: 1.49 µg/mL (≈ 1.99 µM)
  IC90: 7.42 µg/mL (≈ 9.89 µM)
[7]
  IC50: 0.45 µg/mL (≈ 0.6 µM)
  IC90: 1.25 µg/mL (≈ 1.67 µM)
A549 (human lung cancer)
  IC50: 3.9 µg/mL (≈ 5.2 µM)
  IC90: 16 µg/mL (≈ 21.3 µM)
[8]
  IC50: 1.25 µg/mL (≈ 1.67 µM)
  IC90: 3.61 µg/mL (≈ 4.81 µM)
[9]
  IC50: 3.5 µg/mL (≈ 4.67 µM)
  IC90: > 16 µg/mL
[10]
  IC50: 1.3 µg/mL (≈ 1.73 µM)
  IC90: 2.41 µg/mL (≈ 3.21 µM)
[11]
  IC50: 1.32 µg/mL (≈ 1.76 µM)
  IC90: 3.84 µg/mL (≈ 5.12 µM)
[12]
  IC50: 1.08 µg/mL (≈ 1.44 µM)
  IC90: 4.5 µg/mL (≈ 6 µM)
[13]
  IC50: 0.28 µg/mL (≈ 0.373 µM)
  IC90: 0.67 µg/mL (≈ 0.893 µM)
[14]
  IC50: 1.38 µg/mL (≈ 1.84 µM)
  IC90: 8.19 µg/mL (≈ 10.9 µM)
[15]
  IC50: 1.87 µg/mL (≈ 2.49 µM)
  IC90: 7.79 µg/mL (≈ 10.4 µM)
[16]
  IC50: 3.07 µg/mL (≈ 4.09 µM)
  IC90: 8.13 µg/mL (≈ 10.8 µM)
MG63 (osteosarcoma)
  IC50: 1.2 µg/mL (≈ 1.6 µM)
  IC90: 2 µg/mL (≈ 2.67 µM)
PC-3 (prostate cancer)
  IC50: 1.82 µg/mL (≈ 2.43 µM)
  IC90: 3.32 µg/mL (≈ 4.43 µM)
[17]
  IC50: 0.09 µg/mL (≈ 0.12 µM)
  IC90: 2.43 µg/mL (≈ 3.24 µM)

## COc1ccc2cc1Oc1ccc(cc1)C[C@H]1c3cc(c(OC)cc3CCN1C)Oc1c(OC)c(OC)c(COCCOc3ccccc3)c3c1[C@H](C2)N(C)CC3 [BS-TE-402]
[1]
  IC50: 0.2 µg/mL (≈ 0.259 µM)
  IC90: 1.41 µg/mL (≈ 1.82 µM)
[1]; compared with tetrandrine
  anti-NB4 activity increase over tetrandrine: ~8 fold
[2]
  IC50: 0.25 µg/mL (≈ 0.323 µM)
  IC90: 1.25 µg/mL (≈ 1.62 µM)
[2]; compared with tetrandrine
  anti-H9 activity increase over tetrandrine: ~12 fold
[3]
  IC50: 1.29 µg/mL (≈ 1.67 µM)
  IC90: 4.77 µg/mL (≈ 6.17 µM)
[4]
  IC50: 0.83 µg/mL (≈ 1.07 µM)
  IC90: 2.55 µg/mL (≈ 3.3 µM)
[5]
  IC50: 2.34 µg/mL (≈ 3.03 µM)
  IC90: 5.6 µg/mL (≈ 7.25 µM)
[6]
  IC50: 1.5 µg/mL (≈ 1.94 µM)
  IC90: 3.62 µg/mL (≈ 4.68 µM)
[7]
  IC50: 0.17 µg/mL (≈ 0.22 µM)
  IC90: 0.6 µg/mL (≈ 0.776 µM)
[7]; compared with tetrandrine
  anti-RKO activity increase over tetrandrine: 16 fold
A549 (human lung cancer)
  IC50: 1.35 µg/mL (≈ 1.75 µM)
  IC90: 4.79 µg/mL (≈ 6.2 µM)
[8]
  IC50: 0.45 µg/mL (≈ 0.582 µM)
  IC90: 2.29 µg/mL (≈ 2.96 µM)
[8]; compared with tetrandrine
  anti-Hela activity increase over tetrandrine: 9 fold
[9]
  IC50: 1.37 µg/mL (≈ 1.77 µM)
  IC90: 3.89 µg/mL (≈ 5.03 µM)
[10]
  IC50: 1.09 µg/mL (≈ 1.41 µM)
  IC90: 4.97 µg/mL (≈ 6.43 µM)
[11]
  IC50: 1.03 µg/mL (≈ 1.33 µM)
  IC90: 2.49 µg/mL (≈ 3.22 µM)
[12]
  IC50: 0.52 µg/mL (≈ 0.673 µM)
  IC90: 2.15 µg/mL (≈ 2.78 µM)
[12]; compared with tetrandrine
  anti-Becap37 activity increase over tetrandrine: 13 fold
[13]
  IC50: 0.55 µg/mL (≈ 0.712 µM)
  IC90: 1.78 µg/mL (≈ 2.3 µM)
[14]
  IC50: 0.6 µg/mL (≈ 0.776 µM)
  IC90: 4.9 µg/mL (≈ 6.34 µM)
[14]; compared with tetrandrine
  anti-CaES-17 activity increase over tetrandrine: 14 fold
[15]
  IC50: 1.34 µg/mL (≈ 1.73 µM)
  IC90: 4.04 µg/mL (≈ 5.23 µM)
[16]
  IC50: 0.58 µg/mL (≈ 0.75 µM)
  IC90: 3.58 µg/mL (≈ 4.63 µM)
[16]; compared with tetrandrine
  anti-Hep-2 activity increase over tetrandrine: 7 fold
MG63 (osteosarcoma)
  IC50: 0.07 µg/mL (≈ 0.0906 µM)
  IC90: 1.11 µg/mL (≈ 1.44 µM)
MG63 (osteosarcoma); compared with tetrandrine
  anti-MG63 activity increase over tetrandrine: 27 fold
PC-3 (prostate cancer)
  IC50: 2.05 µg/mL (≈ 2.65 µM)
  IC90: 4.71 µg/mL (≈ 6.09 µM)
[17]
  IC50: 0.25 µg/mL (≈ 0.323 µM)
  IC90: 1.17 µg/mL (≈ 1.51 µM)
